Measured values as given in patent US4873225A, “1-n-(4-amino-3-fluoro-2-hydroxybutyryl)-kanamycins” (Zaidan Hojin Biseibutsu Kagaku Kenkyu Kai, priority 1987, dated 1989).
Values after ≈ are worked out from the molar mass of the structure shown. Read-outs that look alike come from different tables or passages of the source.

How the values were obtained:
[1] = tested on: gram-positive bacteria, gram-negative bacteria and various kanamycin-resistant strains of bacteria; assay: Antibacterial activity in vitro, in words; format: cell-based; settings: tested in vitro
Experimental: The present inventors have carried out an extensive investigation in an attempt to produce such novel kanamycin derivatives which are capable of fulfilling such demands. […] The present invention has been completed on the basis of these above findings.
(§1) Antibacterial activities of each of the abovementioned compounds of the general formula (I) according to this invention were determined by measuring their minimum growth inhibitory concentrations (MIC, mcg/ml) against various bacteria in accordance with a standard serial dilution method. The pH condition of the incubation medium where the MIC data were measured was set at pH 7, unless otherwise specifically indicated. For the sake of comparison, the antibacterial spectra of 1-N-{(S)-4-amino-2-hydroxybutyryl}kanamycin A (i.e., amikacin) and 1-N-{(S)-4-amino-2-hydroxybutyryl}-3,4-dideoxykanamycin B (i.e., habekacin) were also measured in the same manner.

[2] = tested on: gram-positive and gram-negative bacteria, including resistant strains; settings: reported in earlier applications, cited from earlier work
[3] = tested on: Staphylococcus aureus Ap 01; settings: reported in earlier applications; cited from earlier work
[4] = tested on: Staphylococcus epidermidis 109; settings: reported in earlier applications; cited from earlier work
[5] = tested on: Pseudomonas aeruginosa TI 13; assay: MIC, standard serial dilution method; format: cell-based; settings: Pseudomonas aeruginosa, read-out: MIC
Experimental: as §1
(§2) (a) The antibacterial activities of the compounds of this invention are not decreased practically even under pH conditions of pH […] as compared to their antibacterial activities under neutral conditions of pH 7.

[6] = tested on: Escherichia coli JR66/W677; assay: MIC, standard serial dilution method; format: cell-based; settings: Escherichia coli, read-out: MIC
Experimental: as §1, §2

mice = assay: Acute toxicity against mice; format: in vivo; settings: orally administered, 150 mg/kg
[7] = tested on: Escherichia coli K-12 LA 290 R55; assay: MIC, standard serial dilution method; format: cell-based; settings: K12LA290R55, pH 7
Experimental: as §1

[8] = tested on: Staphylococcus aureus Ap01; assay: MIC, standard serial dilution method; format: cell-based; settings: AP01, pH 7, read-out: MIC
Experimental: as §1

[9] = tested on: Klebsiella pneumoniae 22 #3038; assay: MIC, standard serial dilution method; format: cell-based; settings: pH 7, read-out: MIC
Experimental: as §1

[10] = tested on: Pseudomonas aeruginosa A3; assay: MIC, standard serial dilution method; format: cell-based; settings: A3, pH 7, read-out: MIC
Experimental: as §1

[11] = tested on: Pseudomonas aeruginosa GN 315; assay: MIC, standard serial dilution method; format: cell-based; settings: GN315, pH 7
Experimental: as §1

Escherichia coli JR 225 = assay: MIC, standard serial dilution method; format: cell-based; settings: JR225, pH 7
Experimental: as §1

Bacillus subtilis PCI219 = assay: MIC, standard serial dilution method; format: cell-based; settings: PCI219, pH 7, read-out: MIC
Experimental: as §1

Escherichia coli K-12 = assay: MIC, standard serial dilution method; format: cell-based; settings: K12, pH 7
Experimental: as §1

Proteus rettgeri GN 311 = assay: MIC, standard serial dilution method; format: cell-based; settings: Providencia rettgeri, GN311, pH 7; read-out: MIC
Experimental: as §1

[12] = tested on: Escherichia coli K-12 ML 1629; assay: MIC, standard serial dilution method; format: cell-based; settings: K12ML1629, pH 7, read-out: MIC
Experimental: as §1

Providencia sp. Pv 16 = assay: MIC, standard serial dilution method; format: cell-based; settings: SP.PV16, pH 7, read-out: MIC
Experimental: as §1

Serratia marcescens = assay: MIC, standard serial dilution method; format: cell-based; settings: pH 7, read-out: MIC
Experimental: as §1

[13] = tested on: Staphylococcus aureus 209P; assay: MIC, standard serial dilution method; format: cell-based; settings: pH 7, read-out: MIC
Experimental: as §1

Mycobacterium 607 = assay: MIC, standard serial dilution method; format: cell-based; settings: Mycobacterium, 607, pH 7; read-out: MIC
Experimental: as §1

[14] = tested on: Corynebacterium bovis 1810; assay: MIC, standard serial dilution method; format: cell-based; settings: Corynebacterium bovis, 1810, pH 7; read-out: MIC
Experimental: as §1

Escherichia coli K-12 R5 = assay: MIC, standard serial dilution method; format: cell-based; settings: K12R5, pH 7
Experimental: as §1
Infectious diseases by Escherichia coli K-12 R5 tend to increase in recent days. The compounds of this invention are therefore important for the therapeutic treatment of bacterial infections.

Structure (SMILES)	MIC ([5]; TI13, pH 7) [µg/mL]	MIC ([5]; TI13, measured at pH 6) [µg/mL]	MIC ([6]; JR66/W677, pH 7) [µg/mL]	MIC ([6]; JR66/W677, measured at pH 6) [µg/mL]	MIC [7] [µg/mL]	MIC [8] [µg/mL]	MIC [9] [µg/mL]	MIC [10] [µg/mL]	MIC [11] [µg/mL]	MIC (Escherichia coli JR 225) [µg/mL]	MIC (Bacillus subtilis PCI219) [µg/mL]	MIC (Escherichia coli K-12) [µg/mL]	MIC (Proteus rettgeri GN 311) [µg/mL]	MIC [12] [µg/mL]	MIC (Providencia sp. Pv 16) [µg/mL]	MIC (Serratia marcescens) [µg/mL]	MIC [13] [µg/mL]	MIC (Mycobacterium 607) [µg/mL]	MIC [14] [µg/mL]	MIC (Escherichia coli K-12 R5) [µg/mL]	also measured
NC[C@H](F)[C@H](O)C(=O)N[C@@H]1C[C@H](N)[C@@H](O[C@H]2O[C@H](CN)[C@@H](O)[C@H](O)[C@H]2N)[C@H](O)[C@H]1O[C@H]1O[C@H](CO)[C@@H](O)[C@H](N)[C@H]1O [1-N-{(2R,3S)-4-amino-3-fluoro-2-hydroxybutyryl}kanamycin B]																					enhancement in antibacterial activities [1]: did not show any enhancement in antibacterial activities
NC[C@H]1O[C@H](O[C@H]2[C@H](O)[C@@H](O[C@H]3O[C@H](CO)[C@@H](O)[C@H](N)[C@H]3O)[C@H](N)C[C@@H]2N)[C@H](F)C[C@@H]1O [2',3'-dideoxy-2'-fluorokanamycin A]																					antibacterial activities (in words) [2]: antibacterial activities against gram-positive and gram-negative bacteria, including certain resistant strains of bacteria
NC[C@@H]1C[C@H](F)[C@@H](N)[C@@H](O[C@H]2[C@H](O)[C@@H](O[C@H]3O[C@H](CO)[C@@H](O)[C@H](N)[C@H]3O)[C@H](N)C[C@@H]2N)O1 [3',4'-dideoxy-3'-fluorokanamycin B]																					effective against resistant strain [3]: effective against such certain resistant strains of bacteria; effective against resistant strain [4]: effective against such certain resistant strains of bacteria
NC[C@H]1O[C@H](O[C@H]2[C@H](O)[C@@H](O[C@H]3O[C@H](CO)[C@@H](O)[C@H](N)[C@H]3O)[C@H](N)C[C@@H]2N)[C@H](O)[C@@H](F)[C@@H]1O [3'-deoxy-3'-fluorokanamycin A]																					antibacterial activities (in words) [2]: effective also against kanamycin-resistant bacteria
NC[C@H]1O[C@H](O[C@H]2[C@H](O)[C@@H](O[C@H]3O[C@H](CO)[C@@H](O)[C@H](N)[C@H]3O)[C@H](N)C[C@@H]2N)[C@H](N)[C@@H](F)[C@@H]1O [3'-deoxy-3'-fluorokanamycin B]																					antibacterial activities (in words) [2]: antibacterial activities against various gram-positive and gram-negative bacteria, including resistant strains
NC[C@H]1O[C@H](O[C@H]2[C@H](F)[C@@H](O[C@H]3O[C@H](CO)[C@@H](O)[C@H](N)[C@H]3O)[C@H](N)C[C@@H]2N)[C@H](N)[C@@H](O)[C@@H]1O [5-deoxy-5-fluorokanamycin B]																					antibacterial activities relative to kanamycin B ([2]; over kanamycin B): enhanced or improved advantageously over kanamycin B
NC[C@@H](F)[C@H](O)C(=O)N[C@@H]1C[C@H](N)[C@@H](O[C@@H]2CC[C@H](O)[C@@H](CN)O2)[C@H](O)[C@H]1O[C@H]1O[C@H](CO)[C@@H](O)[C@H](N)[C@H]1O [Invention Compound No. 2, 1-N-{(2R,3R)-4-Amino-3-fluoro-2-hydroxybutyryl}-2',3'-dideoxykanamycin A]	3.12 (≈ 5.46 µM)	3.12 (≈ 5.46 µM)	1.56 (≈ 2.73 µM)	6.25 (≈ 10.9 µM)	0.78 (≈ 1.36 µM)	1.56 (≈ 2.73 µM)	3.12 (≈ 5.46 µM)	0.78 (≈ 1.36 µM)	12.5 (≈ 21.9 µM)	0.39 (≈ 0.682 µM)	0.78 (≈ 1.36 µM)	0.39 (≈ 0.682 µM)	0.78 (≈ 1.36 µM)	0.78 (≈ 1.36 µM)	1.56 (≈ 2.73 µM)	3.12 (≈ 5.46 µM)	0.2 (≈ 0.35 µM)	1.56 (≈ 2.73 µM)	0.78 (≈ 1.36 µM)	6.25 (≈ 10.9 µM)	survival of mice (mice): all mice surrived
NC[C@@H](F)[C@H](O)C(=O)N[C@@H]1C[C@H](N)[C@@H](O[C@H]2O[C@H](CN)[C@@H](O)[C@H](O)[C@H]2N)[C@H](F)[C@H]1O[C@H]1O[C@H](CO)[C@@H](O)[C@H](N)[C@H]1O [Invention Compound No. 8, 1-N-{(2R,3R)-4-Amino-3-fluoro-2-hydroxybutyryl}-5-deoxy-5-fluorokanamycin B]	1.56 (≈ 2.58 µM)	6.25 (≈ 10.3 µM)	0.78 (≈ 1.29 µM)	3.12 (≈ 5.16 µM)	0.39 (≈ 0.645 µM)	6.25 (≈ 10.3 µM)	3.12 (≈ 5.16 µM)	0.39 (≈ 0.645 µM)	6.25 (≈ 10.3 µM)	0.2 (≈ 0.331 µM)	0.39 (≈ 0.645 µM)	< 0.2	0.2 (≈ 0.331 µM)	0.78 (≈ 1.29 µM)	0.78 (≈ 1.29 µM)	1.56 (≈ 2.58 µM)	0.39 (≈ 0.645 µM)	12.5 (≈ 20.7 µM)	0.39 (≈ 0.645 µM)	3.12 (≈ 5.16 µM)	
NC[C@@H](F)[C@H](O)C(=O)N[C@@H]1C[C@H](N)[C@@H](O[C@H]2O[C@H](CN)[C@@H](O)C[C@H]2N)[C@H](F)[C@H]1O[C@H]1O[C@H](CO)[C@@H](O)[C@H](N)[C@H]1O [Invention Compound No. 9, 1-N-{(2R,3R)-4-Amino-3-fluoro-2-hydroxybutyryl}-5,3'-dideoxy-5-fluorokanamycin B]	0.78 (≈ 1.33 µM)	3.12 (≈ 5.3 µM)	0.39 (≈ 0.663 µM)	1.56 (≈ 2.65 µM)	0.39 (≈ 0.663 µM)	0.78 (≈ 1.33 µM)	0.78 (≈ 1.33 µM)	0.2 (≈ 0.34 µM)	3.12 (≈ 5.3 µM)	0.2 (≈ 0.34 µM)	< 0.2	< 0.2	0.2 (≈ 0.34 µM)	0.78 (≈ 1.33 µM)	0.78 (≈ 1.33 µM)	3.12 (≈ 5.3 µM)	0.39 (≈ 0.663 µM)	1.56 (≈ 2.65 µM)	< 0.2	3.12 (≈ 5.3 µM)	
NC[C@@H]1CC[C@@H](N)[C@@H](O[C@H]2[C@H](F)[C@@H](O[C@H]3O[C@H](CO)[C@@H](O)[C@H](N)[C@H]3O)[C@H](NC(=O)[C@@H](O)[C@H](F)CN)C[C@@H]2N)O1 [Invention Compound No. 10, 1-N-{(2R,3R)-4-Amino-3-fluoro-2-hydroxybutyryl}-5,3',4'-trideoxy-5-fluorokanamycin B]	0.78 (≈ 1.36 µM)	3.12 (≈ 5.45 µM)	0.39 (≈ 0.681 µM)	1.56 (≈ 2.72 µM)	0.39 (≈ 0.681 µM)	0.78 (≈ 1.36 µM)	0.78 (≈ 1.36 µM)	< 0.2	3.12 (≈ 5.45 µM)	< 0.2	0.2 (≈ 0.349 µM)	0.2 (≈ 0.349 µM)	< 0.2	0.39 (≈ 0.681 µM)	0.78 (≈ 1.36 µM)	1.56 (≈ 2.72 µM)	0.39 (≈ 0.681 µM)	0.78 (≈ 1.36 µM)	< 0.2	3.12 (≈ 5.45 µM)	
NC[C@@H](F)[C@H](O)C(=O)N[C@@H]1C[C@H](N)[C@@H](O[C@H]2O[C@H](CN)[C@@H](O)[C@H](O)[C@H]2O)[C@H](O)[C@H]1O[C@H]1O[C@H](CO)[C@@H](O)[C@H](N)[C@H]1O [Invention Compound Nos. 1]																					survival of mice (mice): all mice surrived
